This is an account of results in patent US11851446B2, “Probes for imaging Huntingtin protein” (CHDI Foundation, Inc., priority 2014, dated 2023).

Broadly, the IC50 is the midpoint of a concentration-inhibition curve. A higher IC50 goes with a need for much substance.

Assay [1] has as its system recombinant tau and amyloid β1-42 (Aβ1-42) aggregates. To be noted: higher affinity for the tau aggregates than Aβ1-42 aggregates; cited from earlier work.
For assay [2], the system named is NFT in sections of AD brain tissue. Particulars: in vitro autoradiography and fluorescent staining; cited from earlier work.
In assay [3] the target is T1, Q46 protein aggregates (Homo sapiens, UniProt P42858, INS38QQQQQQQQQQQQQQQQQQQQQQQQQ).
T1 construct: fused on or other part: GST at the N-terminus, cut off by thrombin before the test to start aggregation
T1 sequence (P42858 with tags, fused parts or gaps with the stated changes): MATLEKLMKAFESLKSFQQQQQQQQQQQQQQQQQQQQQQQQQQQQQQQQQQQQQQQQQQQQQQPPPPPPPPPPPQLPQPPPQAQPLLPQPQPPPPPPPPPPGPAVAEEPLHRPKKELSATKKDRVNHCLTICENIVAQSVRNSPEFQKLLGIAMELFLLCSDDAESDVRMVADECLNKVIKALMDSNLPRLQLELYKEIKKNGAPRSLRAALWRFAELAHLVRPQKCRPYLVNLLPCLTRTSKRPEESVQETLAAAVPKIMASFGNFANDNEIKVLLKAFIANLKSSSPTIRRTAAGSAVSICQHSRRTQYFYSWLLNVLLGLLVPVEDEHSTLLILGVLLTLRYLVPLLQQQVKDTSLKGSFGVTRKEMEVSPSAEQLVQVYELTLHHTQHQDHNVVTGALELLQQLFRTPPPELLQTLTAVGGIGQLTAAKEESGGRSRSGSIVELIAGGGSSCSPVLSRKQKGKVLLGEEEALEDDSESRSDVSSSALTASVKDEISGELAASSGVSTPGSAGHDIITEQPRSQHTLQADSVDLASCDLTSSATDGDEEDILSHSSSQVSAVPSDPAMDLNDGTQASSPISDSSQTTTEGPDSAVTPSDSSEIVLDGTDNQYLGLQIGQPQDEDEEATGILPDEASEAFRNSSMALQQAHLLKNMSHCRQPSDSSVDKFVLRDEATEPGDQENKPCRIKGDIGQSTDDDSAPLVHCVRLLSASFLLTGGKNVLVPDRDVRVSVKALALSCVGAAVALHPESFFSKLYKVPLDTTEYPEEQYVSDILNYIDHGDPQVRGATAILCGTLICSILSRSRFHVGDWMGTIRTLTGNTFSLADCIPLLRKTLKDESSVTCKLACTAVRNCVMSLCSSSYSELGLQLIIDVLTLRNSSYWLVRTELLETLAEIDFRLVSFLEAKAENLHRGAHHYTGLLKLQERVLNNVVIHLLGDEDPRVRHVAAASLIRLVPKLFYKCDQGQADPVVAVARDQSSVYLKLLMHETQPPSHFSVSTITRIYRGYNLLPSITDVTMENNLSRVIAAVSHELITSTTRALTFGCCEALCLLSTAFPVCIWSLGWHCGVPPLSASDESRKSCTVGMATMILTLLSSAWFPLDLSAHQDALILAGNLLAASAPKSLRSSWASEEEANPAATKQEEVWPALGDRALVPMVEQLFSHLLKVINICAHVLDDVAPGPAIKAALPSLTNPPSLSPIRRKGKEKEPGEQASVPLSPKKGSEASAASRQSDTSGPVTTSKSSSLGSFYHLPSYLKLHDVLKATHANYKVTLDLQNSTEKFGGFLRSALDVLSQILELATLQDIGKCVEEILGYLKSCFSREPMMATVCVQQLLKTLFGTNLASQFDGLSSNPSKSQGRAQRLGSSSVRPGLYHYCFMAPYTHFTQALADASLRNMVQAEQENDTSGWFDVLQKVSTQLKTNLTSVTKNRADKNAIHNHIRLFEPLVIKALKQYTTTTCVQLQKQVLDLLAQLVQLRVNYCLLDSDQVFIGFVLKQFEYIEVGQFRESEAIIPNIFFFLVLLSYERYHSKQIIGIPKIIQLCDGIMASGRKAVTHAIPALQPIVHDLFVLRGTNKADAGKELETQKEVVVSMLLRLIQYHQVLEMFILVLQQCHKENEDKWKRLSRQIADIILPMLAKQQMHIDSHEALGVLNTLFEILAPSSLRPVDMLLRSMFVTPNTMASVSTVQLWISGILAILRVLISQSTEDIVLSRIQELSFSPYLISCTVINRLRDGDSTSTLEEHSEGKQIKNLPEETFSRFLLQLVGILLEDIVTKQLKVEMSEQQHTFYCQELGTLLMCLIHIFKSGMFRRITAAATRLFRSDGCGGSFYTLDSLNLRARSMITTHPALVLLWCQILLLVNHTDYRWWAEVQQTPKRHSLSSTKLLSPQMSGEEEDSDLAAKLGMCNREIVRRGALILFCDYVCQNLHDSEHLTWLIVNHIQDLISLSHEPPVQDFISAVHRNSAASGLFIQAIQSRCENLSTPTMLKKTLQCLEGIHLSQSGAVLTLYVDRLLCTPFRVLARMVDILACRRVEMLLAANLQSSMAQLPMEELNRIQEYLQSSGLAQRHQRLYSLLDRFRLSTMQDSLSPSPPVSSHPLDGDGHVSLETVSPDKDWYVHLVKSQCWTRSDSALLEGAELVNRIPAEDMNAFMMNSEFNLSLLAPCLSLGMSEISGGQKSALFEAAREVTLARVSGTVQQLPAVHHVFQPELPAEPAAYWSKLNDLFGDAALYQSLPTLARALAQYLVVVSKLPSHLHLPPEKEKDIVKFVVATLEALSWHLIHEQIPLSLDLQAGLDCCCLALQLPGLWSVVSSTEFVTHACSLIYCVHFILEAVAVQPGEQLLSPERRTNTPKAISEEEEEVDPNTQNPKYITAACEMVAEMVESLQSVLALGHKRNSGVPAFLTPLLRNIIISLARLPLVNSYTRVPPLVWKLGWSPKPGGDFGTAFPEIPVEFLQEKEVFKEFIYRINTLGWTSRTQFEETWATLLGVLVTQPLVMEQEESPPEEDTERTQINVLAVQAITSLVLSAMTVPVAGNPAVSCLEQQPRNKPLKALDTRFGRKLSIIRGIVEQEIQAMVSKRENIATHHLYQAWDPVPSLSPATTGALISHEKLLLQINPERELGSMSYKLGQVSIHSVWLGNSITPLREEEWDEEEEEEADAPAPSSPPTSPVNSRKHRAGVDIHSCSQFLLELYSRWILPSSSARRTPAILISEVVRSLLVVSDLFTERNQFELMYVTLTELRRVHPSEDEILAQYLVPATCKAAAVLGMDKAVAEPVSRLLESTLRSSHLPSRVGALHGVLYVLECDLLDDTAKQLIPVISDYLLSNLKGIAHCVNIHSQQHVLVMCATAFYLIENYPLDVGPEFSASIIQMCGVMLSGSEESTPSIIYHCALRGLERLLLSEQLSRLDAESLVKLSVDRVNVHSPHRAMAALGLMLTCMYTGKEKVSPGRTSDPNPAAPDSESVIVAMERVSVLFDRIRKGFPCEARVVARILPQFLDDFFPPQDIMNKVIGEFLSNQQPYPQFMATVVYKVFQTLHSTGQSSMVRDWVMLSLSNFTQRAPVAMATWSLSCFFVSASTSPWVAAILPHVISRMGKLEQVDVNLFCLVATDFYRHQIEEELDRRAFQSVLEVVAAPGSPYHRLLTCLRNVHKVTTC
Kind of assay: Q46 Radioligand Binding Assay (RBA). Particulars: displacement of 10 nM [3H3]MK-3328 from 5 μM aggregated Q46 protein, 60 minutes at 37° C. The protocol: Q46 Radioligand Binding Assay
For radioligand binding assays (RBA) GST-Q46 protein was generated based on a previous publication (Scherzinger et al. Cell, Vol. 90, 549-558, Aug. 8, 1997). For experiments 33 μM GST-Q46 was incubated with 150 μg/mL thrombin in assay buffer (150 mM NaCl, 50 mM Tris pH 8.0) and 2 mM CaCl2 for 16 hours at 37° C. Aggregated Q46 was pelleted by centrifugation for 5 minutes at 13,000 rpm in a bench top centrifuge and re-dissolved in the same volume of assay buffer. Test compounds were prepared by titration in DMSO at 11 concentrations from 33 μM to 1 nM. For the RBA, Q46 protein aggregates and test compounds were pre-incubated in assay buffer for 20 minutes at room temperature, in 140 μL/well in a 96-well plate (pp, round bottom). Then, ligand was added in 10 μL/well and incubated for 60 minutes at 37° C. Final assay concentrations were […] test compound, 5 μM Q46 protein (equivalent monomer concentration) and 10 nM ligand [^3H3]MK-3328 (Harrision et al., ACS Med. Chem. Lett., 2 (2011), pp 498-502). Samples were transferred onto GF/B filter plates and washed 2× with 200 μL PBS using a Filtermate Harvester. After drying filter plates for 1 hour at 37° C., the back of the plates was sealed with foil and 30 μl/well scintillation fluid (Packard MicroScint 40) was added, incubated for […] 15 minutes in the dark and counted in a TopCount reader. For analysis, replicate data from independent assay plates were normalized towards 0% and 100% inhibition using control wells of vehicle (0% inhibition) and 3 μM unlabelled MK-3328 (100% inhibition). IC50 values were determined with a sigmoidal inhibition model with four variables (top, bottom, slope, IC50) in a global fit using the normalized replicate data.

Regarding `CN(C)c1ccc(/C=C/c2nc3ccc(I)cc3[nH]2)cc1` [SBIM-3, 4-[(E)-2-(6-iodo-1H-benzimidazol-2-yl)ethenyl]-N,N-dimethylaniline], in assay [1], the “ratio of Kd values (tau aggregates vs Aβ1-42 aggregates)” value is recorded as 2.73. The “binding to NFT in sections of AD brain tissue” value in assay [2] is “bound NFT”. In assay [3], `CNc1c(-c2ccc(OCc3cccnc3)cc2)nc2cc(C#N)ccn12` [3-(methylamino)-2-[4-(pyridin-3-ylmethoxy)phenyl]imidazo[1,2-a]pyridine-7-carbonitrile] came in with an IC50 of less than 100 nM. In assay [3], `CNc1c(-c2ccc(-c3cnccn3)cc2)nc2cc(C#N)ccn12` [3-(methylamino)-2-[4-(pyrazin-2-yl)phenyl]imidazo[1,2-a]pyridine-7-carbonitrile] registered an IC50 of less than 100 nM. Same read-out and setting: as for `CNc1c(-c2cccc(OCc3cccnc3)c2)nc2cc(C#N)ccn12` [3-(methylamino)-2-[3-(pyridin-3-ylmethoxy)phenyl]imidazo[1,2-a]pyridine-7-carbonitrile], the figure is less than 100 nM; as for `CNc1c(-c2cc3cc(O)ccc3o2)nc2cc(F)ccn12` [2-[7-fluoro-3-(methylamino)imidazo[1,2-a]pyridin-2-yl]-1-benzofuran-5-ol], less than 100 nM; as for `CNc1c(-c2ccc(OC)cc2)nc2cc(C#N)ccn12` [2-(4-methoxyphenyl)-3-(methylamino)imidazo[1,2-a]pyridine-7-carbonitrile], less than 100 nM. On the same count and under the same terms, then `COCCNc1c(-c2cc3cc(OC)ccc3o2)nc2cc(C#N)ccn12` [2-(5-methoxy-1-benzofuran-2-yl)-3-[(2-methoxyethyl)amino]imidazo[1,2-a]pyridine-7-carbonitrile], with less than 100 nM; and `CNc1c(-c2ccc(OCc3cnc(OC)cn3)cn2)nc2cc(C#N)ccn12` [2-{5-[(5-methoxypyrazin-2-yl)methoxy]pyridin-2-yl}-3-(methylamino)imidazo[1,2-a]pyridine-7-carbonitrile], with less than 100 nM. Still for that read-out and setting: as for `CNc1c(-c2cc3cc(OC)ccc3o2)nc2ccc(C#N)cn12` [2-(5-methoxy-1-benzofuran-2-yl)-3-(methylamino)imidazo[1,2-a]pyridine-6-carbonitrile], the figure is less than 100 nM; as for `C#Cc1ccn2c(NC)c(-c3cc4cc(OC)ccc4o3)nc2c1` [7-ethynyl-2-(5-methoxy-1-benzofuran-2-yl)-N-methylimidazo[1,2-a]pyridin-3-amine], less than 100 nM. On to `CNc1c(-c2cc3cc(F)ccc3o2)nc2cc(C#N)ccn12` [2-(5-fluoro-1-benzofuran-2-yl)-3-(methylamino)imidazo[1,2-a]pyridine-7-carbonitrile], for which, in assay [3], the IC50 was less than 100 nM. In turn, `COc1ccc2oc(-c3nc4cc(C#N)ccn4c3N)cc2c1` [3-amino-2-(5-methoxy-1-benzofuran-2-yl)imidazo[1,2-a]pyridine-7-carbonitrile] yielded an IC50 in assay [3] of less than 100 nM.

For `CNc1c(-c2ccc(Br)o2)nc2cc(C#N)ccn12` [2-(5-bromofuran-2-yl)-3-(methylamino)imidazo[1,2-a]pyridine-7-carbonitrile], the IC50 in assay [3] was 100 to 500 nM. Compound `CNc1c(-c2cc3cc(OC)ccc3o2)nc2cc(C#C[Si](C)(C)C)ccn12` [2-(5-methoxy-1-benzofuran-2-yl)-N-methyl-7-[2-(trimethylsilyl)ethynyl]imidazo[1,2-a]pyridin-3-amine] came in with an IC50 in assay [3] of less than 100 nM. On the same count and under the same terms, as for `CNc1c(-c2nc3cc(OC)ccc3o2)nc2cc(C#N)ccn12` [2-(5-methoxy-1,3-benzoxazol-2-yl)-3-(methylamino)imidazo[1,2-a]pyridine-7-carbonitrile], the figure is less than 100 nM; as for `CNc1c(-c2ccc(COCc3cccnc3)cc2)nc2cc(C#N)ccn12` [3-(methylamino)-2-{4-[(pyridin-3-ylmethoxy)methyl]phenyl}imidazo[1,2-a]pyridine-7-carbonitrile], 100 to 500 nM. Still for that read-out and setting: as for `CNc1c(-c2ccc(OCC3=CSC4=NCCN34)cc2)nc2cc(C#N)ccn12` [2-(4-{5H,6H-imidazo[2,1-b][1,3]thiazol-3-ylmethoxy}phenyl)-3-(methylamino)imidazo[1,2-a]pyridine-7-carbonitrile], the figure is less than 100 nM; as for `CNc1c(-c2cc3cc(OC)ccc3o2)nc2ccccn12` [2-(5-methoxy-1-benzofuran-2-yl)-N-methylimidazo[1,2-a]pyridin-3-amine], 100 to 500 nM.

Regarding `CNc1c(-c2cn3c(n2)sc2ccc(OC)cc23)nc2cc(C#N)ccn12` [2-{11-methoxy-7-thia-2,5-diazatricyclo[6.4.0.0^2,6]dodeca-1(12),3,5,8,10-pentaen-4-yl}-3-(methylamino)imidazo[1,2-a]pyridine-7-carbonitrile], the IC50 in assay [3] is less than 100 nM. The same measure, in the same setting: as for `CNc1c(-c2cc3cc(Br)ccc3o2)nc2cc(C#N)ccn12` [2-(5-bromo-1-benzofuran-2-yl)-3-(methylamino)imidazo[1,2-a]pyridine-7-carbonitrile], the figure is less than 100 nM. Same read-out and setting: as for `CNc1c(-c2nc3ccc(OC)cc3n2C)nc2cc(C#N)ccn12` [2-(6-methoxy-1-methyl-1H-1,3-benzodiazol-2-yl)-3-(methylamino)imidazo[1,2-a]pyridine-7-carbonitrile], the figure is less than 100 nM; as for `CNc1c(-c2cc3cc(O)ccc3o2)nc2ccc(F)cn12` [2-[6-fluoro-3-(methylamino)imidazo[1,2-a]pyridin-2-yl]-1-benzofuran-5-ol], 100 to 500 nM.
